Patent US12037372B2, “Bioactive peptides derived from snakes” (Universiteit Leiden, priority 2018, dated 2024)
Values joined by “and” are separate entries in the source; they are usually repeats but may differ in a detail not shown here. Equal values may be shown once.

What was measured:
[1] = test system: multidrug resistant strain Acinetobacter baumannii RUH875; test: Bactericidal activity of peptides (in vitro killing assay); format: cell-based; conditions: 50% (v/v) human plasma, 2 hours
Protocol: (§1) Enterococcus faecium (LUH 15122), Staphylococcus aureus (LUH 14616), Klebsiella pneumoniae (LUH 15104), Acinetobacter baumannii (RUH 875), Pseudomonas aeruginosa (LUH 15103), Enterobacter cloacae (LUH 15114) and Escherichia coli (LUH 15117) were used. Prior to experimentation the bacteria were taken from a glycerol stock stored at −80° C. and cultured overnight on sheep blood agar plates at 37° C. On the day of experimentation the bacteria were cultured in tryptic soy broth (TSB; Oxoid) for 2.5 hours at 37° C. and 200 rpm to a mid-logarithmic phase. The bacterial suspension was washed in phosphate buffered saline (PBS; pH 7.4), centrifuged for 10 minutes at 3000 rpm, and resuspended in PBS to the desired concentration, as determined by measuring the absorbance at 600 nm.
(§2) As a control the bacteria were also incubated in PBS with either 50% plasma or 50% urine without peptide. The plate was incubated for 2 hours at 37° C. and 200 rpm. After incubation the number of viable bacteria was determined microbiologically by plating the samples and a 10-times dilution series in PBS on diagnostic sensitivity test agar plates (DST; Sigma). The DST plates were incubated overnight at 37° C. Results were expressed as lethal concentration 99.9, or LC99.9, which represents the lowest concentration of peptide that killed 99.9% of the bacteria within 2 hours of incubation.

[2] = test system: MDR S. aureus (LUH 14616), MRSA; test: as above; format: cell-based, Staphylococcus aureus; conditions: MDR S. aureus LUH 14616; 2-hour treatment; 50% v/v human plasma; lowest concentration killing ≥99.9%; median (range)
Protocol: as §1, §2

[3] = test system: MDR P. aeruginosa (LUH 15103); test: as above; format: cell-based, Pseudomonas aeruginosa; conditions: 2-hour treatment, 50% v/v human plasma, median (range)
Protocol: as §1, §2

human neutrophils = test: Neutrophil migration assay; format: cell-based; conditions: 3.2 μM peptide
Protocol: Heparinized blood was collected from healthy human volunteers. Next, 10 ml of blood were mixed to 15 ml of PBS in a tube. Underneath the diluted blood, 10 ml of Ficoll (Pharmacy, LUMC) were added. The tube was spun at 1800 rpm for 20 minutes without brake. The supernatant was removed and 40 ml of erythrocyte lysis buffer (0.1 mM EDTA, 0.18 M NH4Cl, 10 mM KHCO3) were added to the pellet. This mixture was incubated at room temperature until erythrocyte lysis was evident. The tube was centrifuged at 1200 rpm for 10 minutes, the supernatant was discarded. The pellet was washed again with PBS the same way. The pellet was resuspended in RPMI 1640 medium and the cells were counted with a counting chamber. The cells were diluted to 2×10^6 cells/ml of RPMI 1640. The inserts with a 3.0 μm pore size in a 12-well plate (HTS transwell; Costar) were blocked with 400 μl of PBS with 0.1% w/v BSA for 10 minutes at room temperature after which the BSA solution was discarded. The 2×10^6 cells/ml suspension was diluted with RPMI to add 400 μl of a 2×10^5 cells/ml suspension to the inserts. […] In the lower compartment 1 ml of the chemoattractant was added. […] Results were expressed as the percentage of migrated neutrophils compared to the positive FMLP control, and corrected for the negative control.

RKVKKGVHRYFKKNKFYIAATIPY [SP27-70]
LC99.9 (μM) A. baumannii ([1]; Table 5): 12.8 µM

KRFKKFFKKVKKSVKKRLKKIFKKPMVIGVTFPF [SP9]
LC99.9 (μM) MRSA in 50% plasma [2]: 51.2 (25.6-51.2) μM
LC99.9 (μM) MDR P. aeruginosa in 50% plasma [3]: 1.6 µM

KRFLRVFKKLKRGIRKLFKKKKIVTGPLTS [SP19]
LC99.9 (μM) MRSA in 50% plasma [2]: >102.4 µM
LC99.9 (μM) MDR P. aeruginosa in 50% plasma [3]: 12.8 µM

LL-37
migrated neutrophils (human neutrophils): 5.6%

KRFAGFFQFVIGVSFHF [SP21]
LC99.9 (μM) MRSA in 50% plasma [2]: >102.4 µM
LC99.9 (μM) MDR P. aeruginosa in 50% plasma [3]: >102.4 µM

KRFLRVFRKLKKGLKKLFKRKKVVTGYVTA [SP32]
LC99.9 (μM) MRSA in 50% plasma [2]: 25.6 µM
LC99.9 (μM) MDR P. aeruginosa in 50% plasma [3]: 12.8 µM

KFFRKVKKGVHRYFKKNKFYIAAT [SP27-67]
LC99.9 (μM) A. baumannii ([1]; Table 5): 3.2 µM

VKKGVHRYFKKNKFYIAATIPYYG [SP27-72]
LC99.9 (μM) A. baumannii ([1]; Table 5): 25.6 µM

KRFKKFFRKLKKSVKKRVKKFFKKPRVIGVTIPF [SP11]
LC99.9 (μM) MRSA in 50% plasma [2]: 3.2 µM
LC99.9 (μM) MDR P. aeruginosa in 50% plasma [3]: 0.4 µM

KVKKGVHRYFKKNKFYIAATIPYY [SP27-71]
LC99.9 (μM) A. baumannii ([1]; Table 5): 12.8 µM

KRFKKFFKKIKTGIKKVIKKTKQAIASHFRW [SP18]
LC99.9 (μM) MRSA in 50% plasma [2]: > 102.4 µM and 102.4 µM
LC99.9 (μM) MDR P. aeruginosa in 50% plasma [3]: 0.8 µM

RKFKKSFKKIRKWVKKATKIAGEVAVEILITKVILGSVGL [SP1]
LC99.9 (μM) MRSA in 50% plasma [2]: >102.4 µM
LC99.9 (μM) MDR P. aeruginosa in 50% plasma [3]: 3.2 µM

KRFKDFFHRIRDGVRDFFRNNHFVCGVNFRF [SP17]
LC99.9 (μM) MRSA in 50% plasma [2]: >102.4 µM
LC99.9 (μM) MDR P. aeruginosa in 50% plasma [3]: >102.4 µM

KRFAGFFQFVVGVSFRF [SP33]
LC99.9 (μM) MRSA in 50% plasma [2]: >102.4 µM
LC99.9 (μM) MDR P. aeruginosa in 50% plasma [3]: >102.4 µM

KRFKKFFKKLKNSVKKRVKKFFRKPRVIGVTFPF [SP3]
LC99.9 (μM) MRSA in 50% plasma [2]: 3.2 µM
LC99.9 (μM) MDR P. aeruginosa in 50% plasma [3]: 0.8 µM

KRFKKFFKKAKKSVKKRLKKFFNKTRVIGVSIPF [SP14]
LC99.9 (μM) MRSA in 50% plasma [2]: 12.8 µM
LC99.9 (μM) MDR P. aeruginosa in 50% plasma [3]: 0.4 µM

KRFKKFFKKVKKSVKKRLKKIFKKPMVIGVTIPF [SP6]
LC99.9 (μM) MRSA in 50% plasma [2]: 57.6 (12.8-102.4) μM
LC99.9 (μM) MDR P. aeruginosa in 50% plasma [3]: 0.4 µM

KRFKKFFRKVKKGVHRYFKKNKFY [SP27-63]
LC99.9 (μM) A. baumannii ([1]; Table 5): 0.4 µM
LC99.9 (μM) A. baumannii ([1]; Table 6): 0.4 µM

FRKVKKGVHRYFKKNKFYIAATIP [SP27-69]
LC99.9 (μM) A. baumannii ([1]; Table 5): 25.6 µM

KRFKKFFKKIKNSVKKRVKKFFKKPRVIGVSIPF [SP23]
LC99.9 (μM) MRSA in 50% plasma [2]: 4.8 (3.2-6.4) μM
LC99.9 (μM) MDR P. aeruginosa in 50% plasma [3]: 0.2 µM

KRFKKFFRKIKKGFRKIFKKTKIFIGGTIPI [SP15]
LC99.9 (μM) MRSA in 50% plasma [2]: 12.8 µM
LC99.9 (μM) MDR P. aeruginosa in 50% plasma [3]: 0.8 µM

FKKFFRKVKKGVHRYFKKNKFYIA [SP27-65]
LC99.9 (μM) A. baumannii ([1]; Table 5): 1.6 µM

KRFKKFLKKLKKSVKKHVKEFFKKPRVIGV [SP35]
LC99.9 (μM) MRSA in 50% plasma [2]: 51.2 µM
LC99.9 (μM) MDR P. aeruginosa in 50% plasma [3]: 1.6 µM

KKFFRKVKKGVHRYFKKNKFYIAA [SP27-66]
LC99.9 (μM) A. baumannii ([1]; Table 5): 1.6 µM

KRFRKFFKRLLKSVRRAVKKFRKKPRLIGLSTLL [SP8]
LC99.9 (μM) MRSA in 50% plasma [2]: 25.6 µM
LC99.9 (μM) MDR P. aeruginosa in 50% plasma [3]: 1.6 µM

KRFKKFFKKVKKSVKKRLKKIFKKPIVIGVSIPF [SP25]
LC99.9 (μM) MRSA in 50% plasma [2]: 12.8 µM
LC99.9 (μM) MDR P. aeruginosa in 50% plasma [3]: 0.4 µM

KRFKKFFMKLKKSVKKRVMKFFKKPMVIGVTFPF [SP12]
LC99.9 (μM) MRSA in 50% plasma [2]: 25.6 (12.8->102.4) μM
LC99.9 (μM) MDR P. aeruginosa in 50% plasma [3]: 3.2 µM

KRFKKFFKKLKNSVRKCAKKFFKKLRVIRVSIPF [SP24]
LC99.9 (μM) MRSA in 50% plasma [2]: 6.4 µM
LC99.9 (μM) MDR P. aeruginosa in 50% plasma [3]: 1.6 µM

FFRKVKKGVHRYFKKNKFYIAATI [SP27-68]
LC99.9 (μM) A. baumannii ([1]; Table 5): 12.8 µM

KRFVGSFQLVVGVSFRF [SP34]
LC99.9 (μM) MRSA in 50% plasma [2]: >102.4 µM
LC99.9 (μM) MDR P. aeruginosa in 50% plasma [3]: >102.4 µM

DQVERGNFAKDGSKARVKKSLTKWVKFLKKIIAKLGRPLIGF [SP22]
LC99.9 (μM) MRSA in 50% plasma [2]: 102.4 µM
LC99.9 (μM) MDR P. aeruginosa in 50% plasma [3]: 51.2 µM

KRFLRLVVFKKLKKGLRKLFKKKKIVTGHVTS [SP28]
LC99.9 (μM) MRSA in 50% plasma [2]: 51.2 µM
LC99.9 (μM) MDR P. aeruginosa in 50% plasma [3]: 6.4 µM

KRFTFYKKVKKNVENLLNKFFKKLRVIGDSIPF [SP26]
LC99.9 (μM) MRSA in 50% plasma [2]: >102.4 µM
LC99.9 (μM) MDR P. aeruginosa in 50% plasma [3]: 12.8 µM

KRFKKFFKKIKNGIKTFIKKTQMAIGSHFRW [SP30]
LC99.9 (μM) MRSA in 50% plasma [2]: 51.2 µM
LC99.9 (μM) MDR P. aeruginosa in 50% plasma [3]: 2.4 (1.6-3.2) μM

KRVKRFKKFFKKVKKSVKKRLKKIFKKPMVIGVTIPF [SP2]
LC99.9 (μM) MRSA in 50% plasma [2]: 25.6 µM
LC99.9 (μM) MDR P. aeruginosa in 50% plasma [3]: 0.4 µM

RFKKFFRKVKKGVHRYFKKNKFYI [SP27-64]
LC99.9 (μM) A. baumannii ([1]; Table 5): 0.8 µM

AREKSFLQKMKVILQLSSQDQIQAF [SP20]
LC99.9 (μM) MRSA in 50% plasma [2]: >102.4 µM
LC99.9 (μM) MDR P. aeruginosa in 50% plasma [3]: >102.4 µM

KRFKNFFKRVRDGIRDFFRKNHIVIGVNFRF [SP31]
LC99.9 (μM) MRSA in 50% plasma [2]: 102.4 µM
LC99.9 (μM) MDR P. aeruginosa in 50% plasma [3]: 25.6 µM

KRFKNFFKKIRDGIHEFIHNNRFVIGVNFRF [SP29]
LC99.9 (μM) MRSA in 50% plasma [2]: >102.4 µM
LC99.9 (μM) MDR P. aeruginosa in 50% plasma [3]: 51.2 µM

KRFKKFFKKVKKSVKKRLKKIFKKPMVIGVSIPF [SP7]
LC99.9 (μM) MRSA in 50% plasma [2]: 38.4 (25.6-51.2) μM
LC99.9 (μM) MDR P. aeruginosa in 50% plasma [3]: 0.8 µM
